≈ marks a conversion by molar mass, not a printed value.
Tests used:
[1] = target: Mitogen-activated protein kinase 10 (Homo sapiens, UniProt P53779); assay: Inhibition of JNK3 (unknown origin) assessed as phosphorylation of ATF-2 by ELISA
[2] = target: Mitogen-activated protein kinase 14 (Homo sapiens, UniProt Q16539); assay: Inhibition of p38alpha (unknown origin) assessed as phosphorylation of ATF-2 by ELISA
[3] = system: U2OS; assay: Cytotoxicity against human U2OS cells assessed as morphology up to 50 uM by DAPI staining assay; assay type: cell-based
[4] = species: Homo sapiens; assay: Selectivity ratio of IC50 for JNK3 (unknown origin) to IC50 for p38alpha (unknown origin)
[5] = Metabolic stability in human liver microsomes assessed as compound remaining after 240 mins by LC-MS/MS analysis; assay type: ADME; conditions: read-out: Stability
[6] = Solubility in aqueous PBS-buffer at pH 7.4; assay type: physicochemical

Chain of Mitogen-activated protein kinase 10 (P53779 whole entry): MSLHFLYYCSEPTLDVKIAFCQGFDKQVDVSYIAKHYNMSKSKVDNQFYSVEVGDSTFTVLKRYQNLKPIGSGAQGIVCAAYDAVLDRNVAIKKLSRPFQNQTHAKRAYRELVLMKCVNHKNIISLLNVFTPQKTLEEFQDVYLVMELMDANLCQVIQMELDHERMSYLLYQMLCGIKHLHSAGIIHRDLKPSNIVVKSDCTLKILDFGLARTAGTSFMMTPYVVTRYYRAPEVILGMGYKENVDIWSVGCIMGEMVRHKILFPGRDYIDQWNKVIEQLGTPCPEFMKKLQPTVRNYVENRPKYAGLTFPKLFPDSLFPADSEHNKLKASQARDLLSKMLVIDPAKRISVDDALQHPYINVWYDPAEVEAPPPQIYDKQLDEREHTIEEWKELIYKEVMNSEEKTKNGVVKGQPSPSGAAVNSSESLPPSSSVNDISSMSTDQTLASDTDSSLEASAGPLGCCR
Chain of Mitogen-activated protein kinase 14 (Q16539 whole entry): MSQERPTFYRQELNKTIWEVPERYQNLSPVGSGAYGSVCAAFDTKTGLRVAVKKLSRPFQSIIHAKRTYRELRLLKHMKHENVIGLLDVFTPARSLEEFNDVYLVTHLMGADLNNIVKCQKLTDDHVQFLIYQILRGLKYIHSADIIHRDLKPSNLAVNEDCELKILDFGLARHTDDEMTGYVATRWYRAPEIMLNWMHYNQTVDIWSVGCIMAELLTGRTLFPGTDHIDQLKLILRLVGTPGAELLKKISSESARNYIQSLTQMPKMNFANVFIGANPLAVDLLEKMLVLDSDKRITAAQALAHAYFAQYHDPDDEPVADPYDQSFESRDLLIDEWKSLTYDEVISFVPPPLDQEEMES

SMILES: O=C(O)/C=C\Sc1nc(-c2ccc(F)cc2)c(-c2ccnc(Nc3ccccc3)c2)[nH]1
- IC50 [1]: 17 nM
- IC50 [2]: 36 nM
- Activity [3]: Non-toxic
- Ratio IC50 [4]: 0.5

SMILES: CC(=O)Nc1cc(-c2c(-c3ccc(F)cc3)nc(S/C=C/C(=O)O)n2CC2CC2)ccn1
- IC50 [1]: 170 nM
- IC50 [2]: 208 nM
- Ratio IC50 [4]: 0.8

SMILES: CC(=O)Nc1cc(-c2c(-c3ccc(F)cc3)nc(SCCC(=O)O)n2C)ccn1
- IC50 [1]: 91 nM
- IC50 [2]: 246 nM
- Ratio IC50 [4]: 0.4

SMILES: CC(=O)Nc1cc(-c2c(-c3ccc(F)cc3)nc(S/C=C\C(=O)O)n2CC2CCCCC2)ccn1
- IC50 [1]: 25 nM
- IC50 [2]: 39 nM
- Ratio IC50 [4]: 0.6

SMILES: CCOC(=O)/C=C\Sc1nc(-c2ccc(F)cc2)c(-c2ccnc(Nc3ccccc3)c2)[nH]1
- IC50 [1]: 80 nM
- IC50 [2]: 146 nM
- Ratio IC50 [4]: 0.5

SMILES: COC(Cn1c(SCCC(=O)O)nc(-c2ccc(F)cc2)c1-c1ccnc(NC(C)=O)c1)OC
- IC50 [1]: 269 nM
- IC50 [2]: 1700 nM
- Ratio IC50 [4]: 0.2

SMILES: CC(=O)Nc1cc(-c2c(-c3ccc(F)cc3)nc(S/C=C\C(=O)O)n2CC2CC2)ccn1
- IC50 [1]: 18 nM
- remaining at 4 h [5]: 70%
- solubility [6]: 1200 µg/mL (≈ 2650 µM)
- IC50 [2]: 30 nM
- Activity [3]: Non-toxic
- Ratio IC50 [4]: 0.6

SMILES: CC(=O)Nc1cc(-c2c(-c3ccc(F)cc3)nc(SC3CCC(C(=O)O)CC3O)n2C)ccn1 (stereo not given)
- IC50 [1]: 180 nM
- IC50 [2]: 764 nM
- Ratio IC50 [4]: 0.2

SMILES: COC(Cn1c(SCC#N)nc(-c2ccc(F)cc2)c1-c1ccnc(F)c1)OC
- IC50 [1]: 4220 nM
- IC50 [2]: 642 nM
- Ratio IC50 [4]: 6.6

SMILES: COC(Cn1c(S/C=C\C(=O)O)nc(-c2ccc(F)cc2)c1-c1ccnc(NC(C)=O)c1)OC
- IC50 [1]: 33 nM
- IC50 [2]: 335 nM
- Ratio IC50 [4]: 0.1

SMILES: CC(=O)Nc1cc(-c2c(-c3ccc(F)cc3)nc(S/C=C\C(=O)O)n2C2CCCC2)ccn1
- IC50 [1]: 45 nM
- IC50 [2]: 164 nM
- Ratio IC50 [4]: 0.3

SMILES: CC(=O)Nc1cc(-c2c(-c3ccc(F)cc3)nc(S/C=C\C(=O)O)n2C)ccn1
- IC50 [1]: 55 nM
- IC50 [2]: 191 nM
- Ratio IC50 [4]: 0.3

SMILES: O=C(O)/C=C/Sc1nc(-c2ccc(F)cc2)c(-c2ccnc(Nc3ccccc3)c2)n1CC1CC1
- IC50 [1]: 213 nM
- IC50 [2]: 181 nM
- Ratio IC50 [4]: 1.2

SMILES: CCOC(=O)/C=C/Sc1nc(-c2ccc(F)cc2)c(-c2ccnc(NC(C)=O)c2)n1CC1CC1
- IC50 [1]: 1220 nM
- IC50 [2]: 655 nM
- Ratio IC50 [4]: 1.8

SMILES: CC(=O)Nc1cc(-c2c(-c3ccc(F)cc3)nc(SC3CCC(C(=O)O)CC3O)n2C2CCCCC2)ccn1 (stereo not given)
- IC50 [1]: 79 nM
- IC50 [2]: 416 nM
- Ratio IC50 [4]: 0.2

SMILES: CCC(C)Nc1cc(-c2c(-c3ccc(F)cc3)nc(S/C=C\C(=O)O)n2CC(OC)OC)ccn1 (stereo not given)
- IC50 [1]: 26 nM
- remaining at 4 h [5]: 56%
- solubility [6]: 930 µg/mL (≈ 1860 µM)
- IC50 [2]: 34 nM
- Activity [3]: Non-toxic
- Ratio IC50 [4]: 0.8

SMILES: CC(=O)Nc1cc(-c2c(-c3ccc(F)cc3)nc(S/C=C\C(=O)O)n2C2CCC2)ccn1
- IC50 [1]: 47 nM
- IC50 [2]: 211 nM
- Ratio IC50 [4]: 0.2

SMILES: COC(Cn1c(SCC#N)nc(-c2ccc(F)cc2)c1-c1ccnc(NC2CC2)c1)OC
- IC50 [1]: 79 nM
- IC50 [2]: 153 nM
- Activity [3]: Non-toxic
- Ratio IC50 [4]: 0.5

SMILES: COC(=O)CSc1nc(-c2ccc(F)cc2)c(-c2ccnc(NC(C)=O)c2)n1C
- IC50 [1]: 199 nM
- IC50 [2]: 297 nM
- Ratio IC50 [4]: 0.7

SMILES: CC(=O)Nc1cc(-c2c(-c3ccc(F)cc3)nc(SCC(=O)N(C)C)n2C)ccn1
- IC50 [1]: 1190 nM
- IC50 [2]: 140 nM
- Ratio IC50 [4]: 8.5

SMILES: CC(=O)Nc1cc(-c2c(-c3ccc(F)cc3)nc(SCC(=O)O)n2C)ccn1
- IC50 [1]: 266 nM
- IC50 [2]: 1670 nM
- Ratio IC50 [4]: 0.2

SMILES: COC(Cn1c(S/C=C\C(=O)O)nc(-c2ccc(F)cc2)c1-c1ccnc(NC2CC2)c1)OC
- IC50 [1]: 12 nM
- IC50 [2]: 128 nM
- Ratio IC50 [4]: 0.1

SMILES: CCNC(=O)N1CCC(Nc2cc(-c3c(-c4ccc(F)cc4)nc(S/C=C\C(=O)O)n3C)ccn2)CC1
- IC50 [1]: 61 nM
- IC50 [2]: 146 nM
- Ratio IC50 [4]: 0.4

SMILES: CC(=O)Nc1cc(-c2c(-c3ccc(F)cc3)nc(SC3CCC(C(=O)O)CC3O)n2CC2CCCO2)ccn1 (racemic)
- IC50 [1]: 2630 nM
- IC50 [2]: 612 nM
- Ratio IC50 [4]: 4.3

SMILES: CCOC(=O)/C=C/Sc1nc(-c2ccc(F)cc2)c(-c2ccnc(NC(C)=O)c2)n1CC(OC)OC
- IC50 [1]: 2170 nM
- IC50 [2]: 2180 nM
- Ratio IC50 [4]: 1

SMILES: CC(=O)Nc1cc(-c2c(-c3ccc(F)cc3)nc(S/C=C\C(=O)O)n2CC(O)CO)ccn1 (stereo not given)
- IC50 [1]: 226 nM
- IC50 [2]: 723 nM
- Ratio IC50 [4]: 0.3

SMILES: CC(=O)CSc1nc(-c2ccc(F)cc2)c(-c2ccnc(NC(C)=O)c2)n1C
- IC50 [1]: 255 nM
- IC50 [2]: 36 nM
- Ratio IC50 [4]: 7.1

SMILES: CCOC(=O)/C=C/Sc1nc(-c2ccc(F)cc2)c(-c2ccnc(NC(C)=O)c2)n1C1CC1
- IC50 [1]: 678 nM
- IC50 [2]: 451 nM
- Ratio IC50 [4]: 1.5

SMILES: O=C(O)/C=C\Sc1nc(-c2ccc(F)cc2)c(-c2ccnc(Nc3ccccc3)c2)n1CC1CC1
- IC50 [1]: 54 nM
- IC50 [2]: 354 nM
- Ratio IC50 [4]: 0.2
